The target in the assay is Fibroblast growth factor 22 (Homo sapiens) (UniProt Q9HCT0). In words: binders of human FGF22 protein, dose response, FGF22 synaptogenesis inhibitor project, biophysical, thermal shift, cherry-pick (AID 687022). Conditions: recombinant FGF22 thermal shift, SYPRO orange melting.

Active and inactive are the calls of the source.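 The calls were made as follows: active = Fitted curve of melting temperature shift crosses the 1.0 threshold at or below the sample's highest valid tested concentration; inconclusive = Flat fit with activity 30 to 70, or invalid fit; inactive = Opposite direction, flat within 30, or no crossing.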 Bounds are passed on as bounds.

Fibroblast growth factor 22 (Homo sapiens), sequence (Q9HCT0 whole entry, looked up): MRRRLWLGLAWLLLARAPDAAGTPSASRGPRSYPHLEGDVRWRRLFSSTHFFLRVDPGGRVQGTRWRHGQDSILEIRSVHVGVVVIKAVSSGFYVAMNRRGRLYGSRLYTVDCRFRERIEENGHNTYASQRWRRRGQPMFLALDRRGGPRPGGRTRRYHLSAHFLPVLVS

For the molecule `Cc1[nH]c2ccccc2c1/C=N/NC(=O)c1cccc(F)c1`, the AbsAC1 (concentration giving Tm-shift threshold 1.0) was 9.79 µM.
As for `O=C(Nc1cccnc1)c1ccc(NS(=O)(=O)c2cccc([N+](=O)[O-])c2)cc1`, the AbsAC1 (concentration giving Tm-shift threshold 1.0) is 8.48 µM.
In the case of `O=C(Nc1nc(=O)n(C(=O)C2CC2)s1)c1ccccc1`, the AbsAC1 (concentration giving Tm-shift threshold 1.0) is 20.7 µM.
On to `O=C(O)C[C@@H]1C[C@H]2c3cc(NC(=O)Nc4ccc(C(F)(F)F)cc4)ccc3O[C@H]2[C@@H](CO)O1`, for which the AbsAC1 (concentration giving Tm-shift threshold 1.0) was > 10 µM (inactive).
On to `Cc1cccc(S(=O)(=O)N2C[C@@H](O)COC[C@H]3O[C@H](CC(=O)Nc4ccc(-c5ccccc5)cc4)CC[C@@H]32)c1`, for which the AbsAC1 (concentration giving Tm-shift threshold 1.0) was 16.6 µM.
As for `CC(=O)Nc1ccc(S(=O)(=O)NCCc2c[nH]c3ccc(C)cc23)cc1`, the figure is 21.6 µM; as for `CO[C@@H](CN(C)S(=O)(=O)c1ccc(Cl)cc1)[C@@H](C)CN([C@H](C)CO)S(=O)(=O)c1cccc(Cl)c1`, 10.7 µM; as for `S=C(Nc1ccc(Cl)cc1)Nc1ccc2cn[nH]c2c1`, 3.25 µM.
For `COc1ccc(NC(=O)CN(C)C(=O)c2cn(-c3ccccc3)nc2-c2cccnc2)cc1`, the AbsAC1 (concentration giving Tm-shift threshold 1.0) was > 38 µM (inactive).
In the case of `C[C@@H]1CN([C@@H](C)CO)C(=O)Cc2cc(NC(=O)C3CC3)ccc2O[C@H]1CN(C)Cc1ccc(Cl)c(Cl)c1`, the AbsAC1 (concentration giving Tm-shift threshold 1.0) is 16.7 µM.
With `COc1ccc(-c2csc(NC(=O)CN3C(=O)C4CCCCC4C3=O)n2)c(OC)c1` (stereo not drawn), the AbsAC1 (concentration giving Tm-shift threshold 1.0) was 14.7 µM.
Turning to `Cc1ccc(C(=O)Nc2nc(=O)n(C(=O)C3CC3)s2)cc1`, the AbsAC1 (concentration giving Tm-shift threshold 1.0) is 11.1 µM.
Turning to `CC(C)CCNC(=O)c1onc(CSc2ccncc2)c1C(=O)NCCC(C)C`, the AbsAC1 (concentration giving Tm-shift threshold 1.0) is 3.89 µM.
As for `COc1cc2cc(NC(C)=O)cc(NCc3ccccc3)c2cc1OC`, the figure is 8.13 µM.
As for `O=[N+]([O-])c1cccc(S(=O)(=O)Nc2ccc(-c3ccc(N4CCOCC4)nn3)cc2)c1`, the AbsAC1 (concentration giving Tm-shift threshold 1.0) was 7.01 µM.
As for `COc1ccc2o/c(=N\O)c(C(=O)Nc3ccc(C)cc3)cc2c1`, the AbsAC1 (concentration giving Tm-shift threshold 1.0) is 28 µM.
In the case of `CCCNC(=O)COC(=O)c1ccccc1C(=O)N(C)C1CCCCC1`, the AbsAC1 (concentration giving Tm-shift threshold 1.0) is 3.78 µM.
As for `Nc1cccc(-c2nc3ccc(C(=O)c4ccccc4)cc3[nH]2)c1`, the AbsAC1 (concentration giving Tm-shift threshold 1.0) was 1.15 µM.
For the molecule `CCOc1ccc(NS(=O)(=O)c2ccc(C(=O)NNC(=O)c3ccccc3O)cc2)cc1`, the AbsAC1 (concentration giving Tm-shift threshold 1.0) is > 38 µM (inactive).
For `CC(=O)Nc1ccc(S(=O)(=O)N(CCc2ccccc2)CC(=O)N/N=C/c2ccc(C(=O)O)cc2)cc1`, the AbsAC1 (concentration giving Tm-shift threshold 1.0) was 7.42 µM.
With `COc1ccc2nc(NC(=O)CCc3cc(OC)c(OC)c(OC)c3)sc2c1`, the AbsAC1 (concentration giving Tm-shift threshold 1.0) was 19.3 µM.
For the molecule `O=C(CNC(=O)c1cccc(Br)c1)N/N=C/c1cc(Br)cc(Br)c1O`, the AbsAC1 (concentration giving Tm-shift threshold 1.0) was > 38 µM (inactive).
As for `CCCOc1ccc(NC(=O)CC2C(=O)N(C)C(=S)N2Cc2ccc3c(c2)OCO3)cc1` (stereo not drawn), the figure is 3.25 µM; as for `COc1ccc(NC(=O)COC(=O)Cc2c[nH]c3ccccc23)cc1Cl`, 2.76 µM.
In the case of `COc1cc(/C=C2/S/C(=N/S(=O)(=O)Cc3ccccc3)NC2=O)c([N+](=O)[O-])cc1OC` it was 3.72 µM.
In the case of `COc1cc(/C=N/NC(=O)c2cc3ccccc3[nH]2)ccc1O` it was 1.49 µM; in that of `O=S(=O)(O)c1cccc2cccc(Nc3ccccc3)c12`, 9.29 µM; in that of `Cc1ccsc1C(=O)NNC(=O)c1ccc(NS(=O)(=O)c2cccs2)cc1`, 11.6 µM.
As to `COc1ccc(/C(=N\Nc2ccccc2C(=O)O)c2ccccc2)cc1`, the AbsAC1 (concentration giving Tm-shift threshold 1.0) was > 19.5 µM (inactive).
For `CCOC(=O)c1c(C)[nH]c(C)c1C(=O)COC(=O)/C=C/c1ccccc1[N+](=O)[O-]`, the AbsAC1 (concentration giving Tm-shift threshold 1.0) was 23.9 µM.
On to `COc1cccc(C#Cc2ccc([C@H]3[C@H]4CN(S(=O)(=O)c5ccccc5C)CC(=O)N4[C@H]3CO)cc2)c1`, for which the AbsAC1 (concentration giving Tm-shift threshold 1.0) is 16.6 µM.
Regarding `CC(C)n1c(=O)c2ccccc2n1Cc1cn(-c2ccc(Cl)cc2)nn1`, the AbsAC1 (concentration giving Tm-shift threshold 1.0) is 3.24 µM.
As for `O=C(Nc1ccccc1)O/N=C/c1ccc(F)cc1`, the AbsAC1 (concentration giving Tm-shift threshold 1.0) was 20.3 µM.
In the case of `O=C(Nc1ccc(F)cc1)N[C@H]1CC[C@@H](CCn2cc(-c3ccccc3F)nn2)O[C@H]1CO` it was 10.5 µM; in that of `Cc1ccc(S(=O)(=O)NCCC(=O)Nc2ccc(C)c(Cl)c2)cc1C`, 4.71 µM.
Regarding `COc1cccc(NC(=O)N(C)C[C@H]2Oc3cc(-c4ccccc4F)ccc3S(=O)(=O)N([C@H](C)CO)C[C@@H]2C)c1`, the AbsAC1 (concentration giving Tm-shift threshold 1.0) was 8.76 µM.
Take `O=C(CCNC(=O)c1ccccc1Cl)Nc1nc2ccc(F)cc2s1`: the AbsAC1 (concentration giving Tm-shift threshold 1.0) is 9.92 µM.
For `COc1ccc(Nc2nc3ccc(OC)cc3s2)cc1`, the AbsAC1 (concentration giving Tm-shift threshold 1.0) is 2.95 µM.
Consider `Nc1nc(O)c(Sc2ccccc2[N+](=O)[O-])c(=O)[nH]1`, for which the AbsAC1 (concentration giving Tm-shift threshold 1.0) was 2.7 µM.
In the case of `C[C@@H]1CN([C@@H](C)CO)S(=O)(=O)c2ccc(C3=CCCC3)cc2O[C@@H]1CN(C)C(=O)Nc1ccc2c(c1)OCO2`, the AbsAC1 (concentration giving Tm-shift threshold 1.0) is 20.2 µM.
Take `CC(C)(C)c1ccc(C2CC2C(=O)N/N=C\c2ccc[nH]2)cc1` (stereo not drawn): the AbsAC1 (concentration giving Tm-shift threshold 1.0) is 14.3 µM.
For `COc1cccc(NC(=O)CN(C)C(=O)c2cn(-c3ccccc3)nc2-c2cccs2)c1`, the AbsAC1 (concentration giving Tm-shift threshold 1.0) is 6.16 µM.
With `O=C(COc1ccc([N+](=O)[O-])cc1)Nc1cccc(C(=O)Nc2ccccc2C(=O)O)c1`, the AbsAC1 (concentration giving Tm-shift threshold 1.0) is 3.74 µM.
Take `O=C(N/N=C/c1ccc[nH]1)c1cc2ccccc2cc1O`: the AbsAC1 (concentration giving Tm-shift threshold 1.0) was 3.23 µM.
In the case of `Cc1cccc(OC(C)C(=O)Nc2ccc3c(c2)OCCO3)c1` (stereo not drawn) it was 15.1 µM; in that of `COC(=O)CN1C(=S)N(c2ccc(Cl)cc2)C(=O)C1CC(=O)Nc1ccc(F)cc1` (stereo not drawn), 6.03 µM; in that of `COc1ccc(NS(=O)(=O)c2cccc(C(=O)NNC(=O)c3ccccc3O)c2)cc1`, 10.4 µM.
Take `O=C(Nc1ccccc1)N1C[C@H]2[C@@H](c3ccccc31)[C@@H](CO)N2C(=O)c1ccncc1`: the AbsAC1 (concentration giving Tm-shift threshold 1.0) was 41.2 µM.
In the case of `O=C(CN1C(=O)NC2(CCOc3ccccc32)C1=O)Nc1ccc(Br)cc1F` (stereo not drawn) it was 16.6 µM; in that of `COc1ccc(NC(=O)c2[nH]ncc2[N+](=O)[O-])cc1`, 17.9 µM.
In the case of `CSCCC(NS(=O)(=O)c1ccc(Cl)c(Cl)c1)C(=O)O` (stereo not drawn) it was > 38 µM (inactive).
Turning to `C[C@@H]1CN([C@@H](C)CO)S(=O)(=O)c2ccc(-c3cccc(C#N)c3)cc2O[C@@H]1CN(C)C(=O)Nc1cc(F)ccc1F`, the AbsAC1 (concentration giving Tm-shift threshold 1.0) was > 38 µM (inactive).
As for `CCOC(=O)c1c(N)sc(C(=O)Nc2ccccc2)c1C`, the figure is 3.02 µM.

The values are drawn from PubChem BioAssay AID687022 (Broad Institute, 2013).
